In data set [1] the test system is mTORC1 signaling. The experiment in a line: mSc-TOSI mTORC1 signaling assay (FACS) in K562 cells. Type of data set: cell-based, human. As for the experimental part:
(A) Schematic representation of the mScarlet-I mTOR Signaling Indicator (mSc-TOSI) degradation under mTORC1 signaling. (B) mSc-TOSI fluorescence intensity in bulk populations of K562 cells stably expressing the mTORC1 signaling reporter. Where indicated, cells were treated with the indicated concentration of mTOR inhibitor for 24 hours before FACS analysis.
(A) Schematic representation of the mScarlet-I mTOR Signaling Indicator (mSc-TOSI) degradation under mTORC1 signaling. (B) mSc-TOSI fluorescence intensity in homozygous single cell-derived K562 clones harboring the MTOR-F2108L mutation with or without targeted CAR integration. Single cell-derived K562 clones were isolated in methylcellulose-based semi-solid RPMI media supplemented with 100 μM ouabain. Where indicated, cells were treated with the indicated concentration of mTOR inhibitor for 24 hours before FACS analysis.
Active mTORC1 signaling results in rapid phosphorylation of the mSc-TOSI phosphodegron by S6K, ubiquitination, and degradation by the proteasome while its inhibition stabilizes the reporter.
The percentage of fluorescent cells was quantified using a BD LSRII flow cytometer and 1×10^5 cells were analyzed for each condition. […] For mTORC1 signaling assays, cells were treated with the indicated concentration of rapamycin or AZD8055 for 24 hours before analysis. FACS sorting was performed using a BD FACS Aria Fusion flow cytometer for the saturation prime editing experiment and 5×10^5 cells were sorted for each condition. Flow cytometric data visualization and analysis were performed using FlowJo™ software (Tree Star).
We then adapted a fluorescent mTORC1 signaling indicator^34 (mSc-TOSI) to assess the impact of rapamycin on mTORC1 signaling after targeted transgene integration to the MTOR locus. Active mTORC1 signaling results in rapid phosphorylation of the mSc-TOSI phosphodegron by S6K, ubiquitination, and degradation by the proteasome while its inhibition stabilizes the reporter^34 (FIG. 5A). We treated bulk populations of cells harboring the MTOR-F2108L mutation with or without targeted therapeutic transgene integration at the MTOR locus with different concentrations of rapamycin and AZD8055, a second-generation mTOR inhibitor.

The subject of data set [2] is metastatic anaplastic thyroid carcinoma. As to conditions: patient with metastatic anaplastic thyroid carcinoma; cited from earlier work.
Data set [3] relates to K562 cells. Description: K562 cell growth in the presence of rapamycin. Type of data set: cell-based, human. As for the experimental part: (A) Prime editing and small indels quantification at MTOR as determined by BEAT and TIDE analysis from Sanger sequencing. K562 cells stably expressing the mSc-TOSI reporter were transfected with 0.75 μg of pCMV-PEmax vector, 0.25 μg of epegRNA (tevopreQ1) vector, and 0.1 μg of nick sgRNA vector. Genomic DNA was harvested 3 days post-transfection (before selection) and cells were treated (rapamycin) or not (vehicle) with 0.5 μM rapamycin until all non-resistant cells were eliminated.
K562 cells were obtained from the ATCC (CCL-243) and NALM6 cells stably transduced to express a FLUC-T2A-RFP-IRES-Puro reporter gene cassette (Biosettia). K562 and NALM6 cells were maintained at 37° C. under 5% CO2 in RPMI medium supplemented with 10% FBS, penicillin-streptomycin, and GlutaMAX. Cells were routinely tested for the absence of mycoplasma contamination. Rapamycin (Cayman Chemicals, Cat 53123-88-9) was dissolved at 10 mg/mL in DMSO, working dilutions were prepared in water and stored at −20° C. AZD8055 ([…] Technologies) was dissolved at 10 mM in DMSO, working dilutions were prepared in water and stored at −20° C. DMSO alone was diluted in water and used as vehicle control. Ouabain octahydrate (Sigma) was dissolved at […] in hot water, working dilutions were prepared in water and stored at −20° C. K562 cells (2×10^5 cells/transfection) were transfected using a Lonza 4D Nucleofector™ with a SF nucleofection kit (Lonza) following manufacturer's recommendations with the indicated DNA concentrations. Cells were treated with the indicated concentration of rapamycin 3 days post-nucleofection until all non-resistant cells were eliminated. For the isolation of single cell-derived clones, simultaneous coselection and cloning was performed in methylcellulose-based semi-solid RPMI medium supplemented with 100 μM ouabain for 10 days.
We then designed epegRNAs to validate the new MTOR-F2108 mutations individually. […] These observations confirmed that the five new mutations identified by saturation prime editing conferred resistance to rapamycin.

Data set [4] deals with MTOR locus. The experiment in a line: F2108L edited alleles in CD3+ T cells after rapamycin selection, TIDER. To be noted: 2 μg dsDNA donor, after rapamycin selection 15 days. The class given is cell-based, human. From the text:
(A) Strategy for the CRISPR-driven insertion of the F2108L mutation to the MTOR locus using a linear double-stranded DNA (dsDNA) donor. (B) Schematic representation of the SpCas9 target site and the dsDNA donor sequence harboring the F2108L and PAM mutations (WT sequence: 5′ portion corresponds to SEQ ID NO: 45 and 3′ portion corresponds to SEQ ID NO: 46; G49 donor: 5′ portion corresponds to SEQ ID NO: 47 and 3′ portion corresponds to SEQ ID NO: 48). […] The percentage of edited alleles was quantified by TIDER after selection.
Receptor dimerization is induced with rapamycin. […] HA, homology arm. PA, polyadenylation signal. EGFP, enhanced green fluorescent protein. 2A self-cleaving peptide.
dsDNA donors were produced as described previously^24. The donor sequences were cloned into a cloning vector and PCR amplification (25 cycles) was performed using Kapa-HiFi polymerase. DNA purification was performed by solid-phase reversible immobilization using AMPure XP (Beckman Coulter) magnetic beads. […]
Genomic DNA was extracted with QuickExtract DNA extraction solution (EpiCentre) following manufacturer's recommendations. […] Sanger sequencing was performed on PCR amplicons to quantify the percentage of edited alleles using TIDE and TIDER^28,29. […]

The subject of data set [5] is MTOR locus. The experiment in a line: Transgene knock-in at MTOR in CD3+ T cells, FACS quantification. Type of data set: cell-based, human. From the text:
(A) Strategy for CRISPR-driven mScarlet-I gene knock-in to the MTOR locus using a linear double-stranded DNA (dsDNA) donor. […] The percentage of cells expressing the mScarlet-I reporter was quantified by FACS after selection. HA, homology arm. PA, polyadenylation signal. EGFP, enhanced green fluorescent protein. 2A self-cleaving peptide.
(A) Strategy for the CRISPR-driven CAR-2A-EGFP gene knock-in to the MTOR locus using a linear double-stranded DNA (dsDNA) donor. […] The percentage of cells expressing the EGFP reporter was quantified by FACS after selection. HA; homology arm. PA; polyadenylation signal. EGFP; enhanced green fluorescent protein. 2A self-cleaving peptide.
The percentage of cells expressing the EGFP reporter was quantified by FACS after selection. HA, homology arm. PA, polyadenylation signal. EGFP, enhanced green fluorescent protein. 2A self-cleaving peptide.
dsDNA donors were produced as described previously^24. The donor sequences were cloned into a cloning vector and PCR amplification (25 cycles) was performed using Kapa-HiFi polymerase. DNA purification was performed by solid-phase reversible immobilization using AMPure XP (Beckman Coulter) magnetic beads. For ribonucleoprotein complex (RNP) formulation, 100 pmols of sgRNAs (IDT) were mixed with 0.8 μL of 100 mg/mL polyglutamic acid (Sigma) and 50 pmols of SpCas9 nuclease (IDT), as previously described^27. The RNP mix was incubated at 37° C. for 10 minutes and the dsDNA donors were added to the mix and incubated at room temperature for 5 minutes before transfection. Primary CD3^+ T cells (1×10^6 cells/transfection) were transfected using a Lonza 4D Nucleofector™ with a P3 nucleofection kit (Lonza) following manufacturer's recommendations with the indicated DNA concentrations. CD3+ T cells were resuspended in 80 μL media without IL-2 directly after nucleofection and incubated at 37° C. for 15 minutes before transfer into culture media plates. For AAV6 transduction, CD3+ T cells were resuspended in 80 μL media directly after nucleofection and AAV6 vectors were added. Cells were incubated at 37° C. for 8 hours at high cell density before transfer into culture media plates.
The percentage of fluorescent cells was quantified using a BD LSRII flow cytometer and 1×10^5 cells were analyzed for each condition. For antibody staining, K562 cells were incubated with Fc receptor block (eBioscience Cat 16-9161-73) for 20 minutes on ice with PBS and 3% human serum (Sigma). Anti-human CD34 Alexa Fluor 488-conjugated antibody clone QBEnd10 (R and D systems Cat FAB7227G) and anti-human CD52 FITC-conjugated antibody clone HI186 were used for RQR8 and CD52 quantification, respectively. For mTORC1 signaling assays, cells were treated with the indicated concentration of rapamycin or AZD8055 for 24 hours before analysis. […]

Data set [6] has as its system MTOR locus. The experiment in a line: Transgene knock-in at MTOR in K562 cells, FACS quantification. To be noted: Rapamycin-treated K562 cells, FACS with antibody staining. Type of data set: cell-based, human. The procedure: (A) Strategy for the CRISPR-driven CAR-2A-EGFP gene knock-in to the MTOR locus using a plasmid donor. (B) K562 cells were transfected with 0.5 μg of SpCas9-sgRNA-expressing plasmid and 1 μg of donor plasmid. Cells were treated with 0.5 μM rapamycin 3 days post-transfection until all non-resistant cells were eliminated. The percentage of cells expressing the EGFP reporter was quantified by FACS after selection. HA; homology arm. PA; polyadenylation signal. EGFP; enhanced green fluorescent protein. 2A self-cleaving peptide.
(A) Strategy for the CRISPR-driven RQR8 gene knock-in to the MTOR locus using a plasmid donor. (B) K562 cells were transfected with 0.5 μg of SpCas9-sgRNA-expressing plasmid and 1 μg of donor plasmid harboring. […] The percentage of cells expressing the RQR8 epitope marker was quantified by FACS after selection using an Alexa Fluor 488-conjugated anti-human CD34 antibody. […] (D) Same as in B, but the percentage of cells expressing CD52 was quantified using a FITC-conjugated anti-human CD52 antibody. […]
The percentage of fluorescent cells was quantified using a BD LSRII flow cytometer and 1×10^5 cells were analyzed for each condition. […] Anti-human CD34 Alexa Fluor 488-conjugated antibody clone QBEnd10 (R and D systems Cat FAB7227G) and anti-human CD52 FITC-conjugated antibody clone HI186 were used for RQR8 and CD52 quantification, respectively. […]

“Also recorded” adds a separate entry of the source.

With `COc1ccc(-c2ccc3c(N4CCOC[C@@H]4C)nc(N4CCOC[C@@H]4C)nc3n2)cc1CO` [AZD8055], the “sensitivity of mTORC1 signaling to inhibitor” value in data set [1] (CRISPR-engineered K562 cells harboring MTOR-F2108L, 24 hours) is “remained sensitive”.

`CO[C@H]1C[C@@H]2CC[C@@H](C)[C@@](O)(O2)C(=O)C(=O)N2CCCC[C@H]2C(=O)O[C@H]([C@H](C)C[C@@H]2CC[C@@H](OCCO)[C@H](OC)C2)CC(=O)[C@H](C)/C=C(\C)[C@@H](O)[C@@H](OC)C(=O)[C@H](C)C[C@H](C)/C=C/C=C/C=C/1C` [everolimus]: the “response duration before relapse” value in data set [2] is 18 month.

As for `CO[C@H]1C[C@@H]2CC[C@@H](C)[C@@](O)(O2)C(=O)C(=O)N2CCCC[C@H]2C(=O)O[C@H]([C@H](C)C[C@@H]2CC[C@@H](O)[C@H](OC)C2)CC(=O)[C@H](C)/C=C(\C)[C@@H](O)[C@@H](OC)C(=O)[C@H](C)C[C@H](C)/C=C/C=C/C=C/1C` [rapamycin, Rapamycin], the mTORC1 signaling result in data set [1] (K562 cells after prime editing (F2108L) and selection, different concentrations of rapamycin) is “remained functional”; in data set [1] (K562 with F2108L mutation), “complete rapamycin resistance”; in data set [1] (K562 with F2108V and F2108K), “low levels of signaling”; in data set [1] (K562 with F21081, F2108M, and F2108G), “intermediate levels of signaling”; in data set [1] (K562 without epegRNA (pUC19) and with silent F2108F mutation) it was “complete mTORC1 signaling inhibition”; in data set [1] (MTOR-F2108L homozygous K562 clones with or without CAR integration, rapamycin treatment), “remained completely functional”. The mTORC1 signaling result is given as “very low levels of mTORC1 signaling” in data set [1] (adenine base edited K562 cells, in the presence of rapamycin) and “functional mTORC1 signaling; also recorded: slight mTORC1 signaling decrease” in data set [1] (bulk K562 cells harboring MTOR-F2108L with or without transgene integration, 50 nM to 5 000 nM rapamycin, 24 hours). In addition, the “resistance of cells to rapamycin” value in data set [3] (ABE8e-targeted K562 cells) was “partial resistance”; in data set [3] (K562 cells with silent F2108F mutation, 0.5 μM rapamycin) it was “no resistance”. For the same molecule, the cell growth result in data set [3] (K562 cells harboring MTOR-F2108 substitutions, 0.5 μM rapamycin) was “grew robustly”.

Consider “G49: gRNA, MTOR-Intron 45, target AGGTAGGATCTTCAGGCTCC (SEQ ID NO: 6); used as SpCas9 RNP with donor (listed as DNA, chemistry not given here; listed as Homo sapiens)”, for which the “alleles harboring the F2108L mutation” value in data set [4] is “up to 63%”. Moreover, in data set [4], the “alleles harboring the PAM mutation” value is listed as at most 69%. Besides, the “percentage of CD3+ T cells expressing the mScarlet-I reporter” value in data set [5] (1 μg dsDNA donor, after rapamycin selection 8 days) is listed as 21%; in data set [5] (1 μg dsDNA donor, without selection), 11%; in data set [5] (2 μg dsDNA donor, after rapamycin selection 8 days) it was 31%; in data set [5] (2 μg dsDNA donor, without selection), 18%.

Turning to “RQR8: 136-amino-acid epitope-based marker/suicide gene targeted to MTOR with plasmid donor (SEQ ID NO: 26)”, the transgene expression entry in data set [6] is “higher transgene expression”.
